Laboratory results: PubChem BioAssay (NCI)
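Dose response: 5 concentrations. Exposure: 48 h. Format: 96-well plates. Endpoint: linear interpolation; highest concentration if not reached. GI50 = concentration required for 50% inhibition of growth. TGI: total growth inhibition.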

How the values were obtained:
Experiment in all cases: NCI-60 cell line screen, 48 h
786-0 renal = tested on: 786-0 renal
PC-3 prostate = tested on: PC-3 prostate
K-562 leukemia = tested on: K-562 leukemia
SN12C renal = tested on: SN12C renal
TK-10 renal = tested on: TK-10 renal
HCC-2998 colon = tested on: HCC-2998 colon
MCF7 breast = tested on: MCF7 breast
NCI-H226 lung = tested on: NCI-H226 lung
KM12 colon = tested on: KM12 colon
CCRF-CEM leukemia = tested on: CCRF-CEM leukemia
SK-MEL-28 melanoma = tested on: SK-MEL-28 melanoma
HS 578T breast = tested on: HS 578T breast
HCT-15 colon = tested on: HCT-15 colon
UACC-257 melanoma = tested on: UACC-257 melanoma
MALME-3M melanoma = tested on: MALME-3M melanoma
BT-549 breast = tested on: BT-549 breast
SNB-19 CNS = tested on: SNB-19 CNS
NCI-H23 lung = tested on: NCI-H23 lung
RPMI-8226 leukemia = tested on: RPMI-8226 leukemia
SK-MEL-5 melanoma = tested on: SK-MEL-5 melanoma
UACC-62 melanoma = tested on: UACC-62 melanoma
EKVX NSCLC = tested on: EKVX NSCLC
HCT-116 colon = tested on: HCT-116 colon
RXF 393 renal = tested on: RXF 393 renal
SK-MEL-2 melanoma = tested on: SK-MEL-2 melanoma
HL-60(TB) leukemia = tested on: HL-60(TB) leukemia
SNB-75 CNS = tested on: SNB-75 CNS
HOP-92 NSCLC = tested on: HOP-92 NSCLC
HOP-62 NSCLC = tested on: HOP-62 NSCLC
SW-620 colon = tested on: SW-620 colon
MDA-MB-231 breast = tested on: MDA-MB-231 breast
MOLT-4 leukemia = tested on: MOLT-4 leukemia
IGROV1 ovarian = tested on: IGROV1 ovarian
A549 NSCLC = tested on: A549 NSCLC
OVCAR-8 ovarian = tested on: OVCAR-8 ovarian
COLO 205 colon = tested on: COLO 205 colon
SR leukemia = tested on: SR leukemia
HT29 colon = tested on: HT29 colon
UO-31 renal = tested on: UO-31 renal
M14 melanoma = tested on: M14 melanoma
LOX IMVI melanoma = tested on: LOX IMVI melanoma
OVCAR-3 ovarian = tested on: OVCAR-3 ovarian
CAKI-1 renal = tested on: CAKI-1 renal
U251 CNS = tested on: U251 CNS
SF-295 CNS = tested on: SF-295 CNS
NCI-H522 lung = tested on: NCI-H522 lung
NCI-H460 lung = tested on: NCI-H460 lung
MDA-MB-435 = tested on: MDA-MB-435
DU-145 prostate = tested on: DU-145 prostate
OVCAR-5 ovarian = tested on: OVCAR-5 ovarian
NCI/ADR-RES ovarian = tested on: NCI/ADR-RES ovarian
SF-268 CNS = tested on: SF-268 CNS
SF-539 CNS = tested on: SF-539 CNS
ACHN renal = tested on: ACHN renal

Work on `CCOC(=O)c1ccc(N=C2S/C(=C\C(=S)Nc3ccccc3)N(c3ccccc3)C2=Nc2ccc(C(=O)OCC)cc2)cc1` yielded a TGI (786-0 renal) of over 100 µM, a TGI (PC-3 prostate) of over 100 µM and a TGI (K-562 leukemia) of over 100 µM. The TGI (SN12C renal) was over 100 µM, the TGI (TK-10 renal) was over 100 µM and the TGI (HCC-2998 colon) was over 100 µM. It also gave a TGI (MCF7 breast) of over 100 µM, a TGI (NCI-H226 lung) of over 100 µM and a TGI (KM12 colon) of over 100 µM. It also gave a TGI (CCRF-CEM leukemia) of over 100 µM, a TGI (SK-MEL-28 melanoma) of over 100 µM and a TGI (HS 578T breast) of over 100 µM. It also gave a TGI (HCT-15 colon) of over 100 µM, a TGI (UACC-257 melanoma) of over 100 µM and a TGI (MALME-3M melanoma) of 82.6 µM. For the same molecule, the TGI (BT-549 breast) was over 100 µM, the TGI (SNB-19 CNS) was over 100 µM and the TGI (NCI-H23 lung) was over 100 µM. For the same molecule, the TGI (RPMI-8226 leukemia) was over 100 µM, the TGI (SK-MEL-5 melanoma) was over 100 µM and the TGI (UACC-62 melanoma) was over 100 µM. It also gave a TGI (EKVX NSCLC) of over 100 µM, a TGI (HCT-116 colon) of over 100 µM and a TGI (RXF 393 renal) of over 100 µM. It also gave a TGI (SK-MEL-2 melanoma) of over 100 µM, a TGI (HL-60(TB) leukemia) of over 100 µM and a TGI (SNB-75 CNS) of over 100 µM. The TGI (HOP-92 NSCLC) was over 100 µM, the TGI (HOP-62 NSCLC) was over 100 µM and the TGI (SW-620 colon) was over 100 µM. For the same molecule, the TGI (MDA-MB-231 breast) was over 100 µM, the TGI (MOLT-4 leukemia) was over 100 µM and the TGI (IGROV1 ovarian) was over 100 µM. For the same molecule, the TGI (A549 NSCLC) was over 100 µM, the TGI (OVCAR-8 ovarian) was over 100 µM and the TGI (COLO 205 colon) was over 100 µM. It also gave a TGI (SR leukemia) of over 100 µM, a TGI (HT29 colon) of over 100 µM and a TGI (UO-31 renal) of over 100 µM. For the same molecule, the TGI (M14 melanoma) was over 100 µM.
`CN(c1ccc(C(=O)O)cc1)c1cc(O/N=[N+](\[O-])N(C)C)c([N+](=O)[O-])cc1[N+](=O)[O-]` was tested, and the GI50 (786-0 renal) was 3.25 µM, the TGI (786-0 renal) was 14.6 µM and the GI50 (LOX IMVI melanoma) was 1.86 µM. It also gave a TGI (LOX IMVI melanoma) of 4.33 µM, a GI50 (PC-3 prostate) of 17.5 µM and a TGI (PC-3 prostate) of 38.1 µM. For the same molecule, the GI50 (K-562 leukemia) was 6.99 µM, the TGI (K-562 leukemia) was over 100 µM and the GI50 (SN12C renal) was 12.2 µM. For the same molecule, the TGI (SN12C renal) was 25.3 µM, the GI50 (TK-10 renal) was 13.9 µM and the TGI (TK-10 renal) was 26.9 µM. For the same molecule, the GI50 (MCF7 breast) was 6.8 µM, the TGI (MCF7 breast) was 54.8 µM and the GI50 (NCI-H226 lung) was 11.3 µM. The TGI (NCI-H226 lung) was 29 µM, the GI50 (KM12 colon) was 10.9 µM and the TGI (KM12 colon) was 23.9 µM. It also gave a GI50 (CCRF-CEM leukemia) of over 100 µM, a TGI (CCRF-CEM leukemia) of over 100 µM and a GI50 (OVCAR-3 ovarian) of 2.62 µM. The TGI (OVCAR-3 ovarian) was 6.92 µM, the GI50 (SK-MEL-28 melanoma) was 21 µM and the TGI (SK-MEL-28 melanoma) was 57.1 µM. The GI50 (HS 578T breast) was 21.5 µM, the TGI (HS 578T breast) was 61.3 µM and the GI50 (HCT-15 colon) was 2.03 µM. The TGI (HCT-15 colon) was 5.3 µM, the GI50 (UACC-257 melanoma) was 21 µM and the TGI (UACC-257 melanoma) was 40.6 µM. For the same molecule, the GI50 (BT-549 breast) was 17.4 µM, the TGI (BT-549 breast) was 32.6 µM and the GI50 (SNB-19 CNS) was 14.6 µM. It also gave a TGI (SNB-19 CNS) of 40.7 µM, a GI50 (NCI-H23 lung) of 4.83 µM and a TGI (NCI-H23 lung) of 29.2 µM. For the same molecule, the GI50 (RPMI-8226 leukemia) was 2.79 µM, the TGI (RPMI-8226 leukemia) was 18 µM and the GI50 (CAKI-1 renal) was 1.79 µM. The TGI (CAKI-1 renal) was 4 µM, the GI50 (SK-MEL-5 melanoma) was 19.1 µM and the TGI (SK-MEL-5 melanoma) was 38.7 µM. For the same molecule, the GI50 (UACC-62 melanoma) was 7.29 µM, the TGI (UACC-62 melanoma) was 19.8 µM and the GI50 (EKVX NSCLC) was 18.2 µM. It also gave a TGI (EKVX NSCLC) of 36.2 µM, a GI50 (U251 CNS) of 3.69 µM and a TGI (U251 CNS) of 14.1 µM. It also gave a GI50 (HCT-116 colon) of 2.72 µM, a TGI (HCT-116 colon) of 10.4 µM and a GI50 (SF-295 CNS) of 12.6 µM. The TGI (SF-295 CNS) was 27 µM, the GI50 (RXF 393 renal) was 17.1 µM and the TGI (RXF 393 renal) was 33.8 µM. For the same molecule, the GI50 (NCI-H522 lung) was 15.1 µM, the TGI (NCI-H522 lung) was over 100 µM and the GI50 (SK-MEL-2 melanoma) was 14.9 µM. For the same molecule, the TGI (SK-MEL-2 melanoma) was 39.6 µM, the GI50 (HL-60(TB) leukemia) was 2.84 µM and the TGI (HL-60(TB) leukemia) was 27.4 µM. For the same molecule, the GI50 (SNB-75 CNS) was 25.6 µM, the TGI (SNB-75 CNS) was 55.6 µM and the GI50 (NCI-H460 lung) was 18.9 µM. The TGI (NCI-H460 lung) was over 100 µM, the GI50 (HOP-62 NSCLC) was 14.5 µM and the TGI (HOP-62 NSCLC) was 31.3 µM. For the same molecule, the GI50 (SW-620 colon) was 3.64 µM, the TGI (SW-620 colon) was over 100 µM and the GI50 (MDA-MB-435) was 4.84 µM. The TGI (MDA-MB-435) was 19.9 µM, the GI50 (MDA-MB-231 breast) was 3.71 µM and the TGI (MDA-MB-231 breast) was 12.2 µM. The GI50 (DU-145 prostate) was 17.1 µM, the TGI (DU-145 prostate) was 33.5 µM and the GI50 (MOLT-4 leukemia) was 12.1 µM. The TGI (MOLT-4 leukemia) was over 100 µM, the GI50 (IGROV1 ovarian) was 5.48 µM and the TGI (IGROV1 ovarian) was 24.5 µM. For the same molecule, the GI50 (OVCAR-5 ovarian) was 10.8 µM, the TGI (OVCAR-5 ovarian) was 72.5 µM and the GI50 (A549 NSCLC) was 23.5 µM. For the same molecule, the TGI (A549 NSCLC) was 63.7 µM, the GI50 (OVCAR-8 ovarian) was 22.3 µM and the TGI (OVCAR-8 ovarian) was 54.5 µM. For the same molecule, the GI50 (COLO 205 colon) was 8.78 µM, the TGI (COLO 205 colon) was over 100 µM and the GI50 (NCI/ADR-RES ovarian) was 3.35 µM. The TGI (NCI/ADR-RES ovarian) was 17.2 µM, the GI50 (SF-268 CNS) was 13.1 µM and the TGI (SF-268 CNS) was 36.3 µM. It also gave a GI50 (SF-539 CNS) of 16.6 µM, a TGI (SF-539 CNS) of 35.8 µM and a GI50 (SR leukemia) of 19.8 µM. The TGI (SR leukemia) was over 100 µM, the GI50 (HT29 colon) was 23 µM and the TGI (HT29 colon) was over 100 µM. For the same molecule, the GI50 (UO-31 renal) was 32.1 µM, the TGI (UO-31 renal) was over 100 µM and the GI50 (ACHN renal) was 3.8 µM. The TGI (ACHN renal) was 14.1 µM.
